Laboratory results reported in publication PMC9201908, “Expansion of the Strigolactone Profluorescent Probes Repertory: The Right Probe for the Right Application” (Frontiers in Plant Science, 2022).
“Also recorded” adds a separate entry of the source. Where two headings read alike, the source gives them in different places.

Tests used:
[1] = test system: rms1-10 pea mutant plants; experiment: Pea shoot-branching assay by direct application on the bud, rms1-10; format: in vivo, Pisum sativum; details: for Bioactivity on shoot branching inhibition (bud development): result in words; for Length of bud at node 3 /branch: direct application, rms1-10, 10 days after treatment, mean per replicate
Procedure: (§1) Pea (Pisum sativum) branching mutant plants used in this study were described previously (Rameau et al., [1997]). The SL biosynthesis rms1-10 (M3T-884) and SL response rms3-4 (M2T-30) mutants were obtained from the dwarf cv. Térèse. Plants were grown in a greenhouse under long days as described by Braun et al. ([2012]).
(§2) The compounds to be tested were applied directly to the axillary bud with a micropipette as 10 μL of a solution containing 0.1% of acetone with 2% of polyethylene glycol 1,450, 50% of ethanol, and 0.4% of DMSO. The control 0 is the treatment with 0.1% of DMSO without compound. A total of 24 plants were sown per treatment in trays (2 repetitions of 12 plants). The treatment was done 8 days after sowing, on the axillary bud at node 3. The branches at nodes 1–2 were removed to encourage the outgrowth of axillary buds at nodes above. Nodes were numbered acropetally from the first scale leaf as node 1 and cotyledonary node as node 0. Bud growth at node 3 was measured 10 days after treatment. Plants with damaged main shoot apex or showing a dead white treated bud were discarded from the analysis. The SL-deficient rms1-10 pea mutant was used for all experiments and WT Térèse as control. SL-perceived rms3-4 pea mutant was used to test that when bioactive, the analog acts via RMS3, and it was also used to check the putative toxicity of probes.

[2] = biological target: T1, OsD14 (Oryza sativa subsp. japonica, UniProt Q10QA5); experiment: Enzymatic assay with profluorescent probes, OsD14; format: biochemical, Ozyza sativa; details: protein 0.33 μM, probe 10 μM
T1 construct: GST (N); made in house
T1 sequence (Q10QA5 with tags, fused parts or gaps): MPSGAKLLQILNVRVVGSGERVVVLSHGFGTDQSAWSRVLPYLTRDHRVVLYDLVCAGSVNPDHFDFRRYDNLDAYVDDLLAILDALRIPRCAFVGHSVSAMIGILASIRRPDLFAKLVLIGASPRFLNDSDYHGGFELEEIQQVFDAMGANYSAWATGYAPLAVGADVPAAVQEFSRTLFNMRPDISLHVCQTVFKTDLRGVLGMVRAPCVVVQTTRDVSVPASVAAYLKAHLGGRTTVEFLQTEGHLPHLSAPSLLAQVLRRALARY
Procedure: (§3) The enzyme activity was determined by measuring the release of the fluorescent intensities of each fluorophores resulting from the cleavage of profluorescent probes by RMS3, AtD14, OsD14, and DAD2 proteins in a SPARK M10 in a 96-well format (de Saint Germain et al., [2021a]). In the assay, using an Integra Viaflo 96 robot, 50 μL of a solution of protein at 0.33 μM in same buffer was added simultaneously in all 96 wells to 50 μL of profluorescent substrate solution (at varying concentrations, prepared from a 10 mM stock solution in 100% of DMSO) in PBS (100 mM of phosphate, pH 6.8, 150 mM of NaCl). After a lag time of 15 s, the formation of fluorophores was recorded over 3 h at 15 s intervals at 25°C. […] All experiments were repeated with three technical replicates. The fluorescence of each fluorophore was also determined for each measurement at the same time frame but in the absence of enzyme in order to determine the standard curves. For rapid enzymatic assays (Figure 8A, small panel), the solution of protein was added by the injector of the plate reader and then, the well was immediately read over 5 min with 1 s intervals. Same parameters were used to determine the fluorophore concentration.

[3] = test system: rms1-10 pea mutant plants; details: direct application, rms1-10, tested previously, ref De saint Germain et al 2016, cited from earlier work
[4] = biological target: T2, DAD2 (Petunia hybrida, UniProt J9U5U9); experiment: Enzymatic assay with profluorescent probes, DAD2; format: biochemical; details: protein 0.33 μM, probe 10 μM
T2 construct: GST (N); made in house
T2 sequence (J9U5U9 1-267): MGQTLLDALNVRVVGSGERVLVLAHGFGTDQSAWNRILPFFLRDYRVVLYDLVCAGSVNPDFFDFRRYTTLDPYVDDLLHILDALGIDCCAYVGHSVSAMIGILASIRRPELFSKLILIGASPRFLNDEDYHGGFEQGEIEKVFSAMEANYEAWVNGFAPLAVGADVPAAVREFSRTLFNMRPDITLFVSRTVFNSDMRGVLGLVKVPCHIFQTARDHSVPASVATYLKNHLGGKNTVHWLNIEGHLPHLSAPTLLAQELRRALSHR
Procedure: as §3

[5] = biological target: T3, RMS3 protein (Pisum sativum, UniProt A0A109QYD3); experiment: Enzymatic assay with profluorescent probes, RMS3; format: biochemical; details: probe 10 μM; for Cleavage kinetics by RMS3: RMS3 400 nM, 25°C, result in words; for Cleavage of probe by RMS3: protein 0.33 μM
T3 construct: GST; made in house
T3 sequence (A0A109QYD3 1-267): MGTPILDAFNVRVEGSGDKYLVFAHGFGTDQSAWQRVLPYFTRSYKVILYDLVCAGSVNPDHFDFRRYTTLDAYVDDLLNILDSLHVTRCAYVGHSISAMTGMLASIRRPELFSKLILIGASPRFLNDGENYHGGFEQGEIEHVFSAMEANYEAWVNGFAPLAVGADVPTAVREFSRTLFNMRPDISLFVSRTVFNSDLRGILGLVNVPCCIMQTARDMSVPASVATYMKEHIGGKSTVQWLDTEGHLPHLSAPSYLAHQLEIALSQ

[6] = biological target: T4, AtD14 (Arabidopsis thaliana, UniProt Q9SQR3); experiment: Enzymatic assay with profluorescent probes, AtD14; format: biochemical; details: protein 0.33 μM, probe 10 μM
T4 construct: GST; made in house
T4 sequence (Q9SQR3 1-267): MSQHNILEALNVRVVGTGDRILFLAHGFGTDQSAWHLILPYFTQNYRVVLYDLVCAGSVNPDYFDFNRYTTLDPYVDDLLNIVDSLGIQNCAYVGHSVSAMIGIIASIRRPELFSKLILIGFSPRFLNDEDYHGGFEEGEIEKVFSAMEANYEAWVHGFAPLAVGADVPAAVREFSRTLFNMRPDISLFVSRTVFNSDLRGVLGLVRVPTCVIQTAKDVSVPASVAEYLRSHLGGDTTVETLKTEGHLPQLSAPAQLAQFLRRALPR
Procedure: as §3

[7] = test system: Arabidopsis SL-deficient mutant max3-11; details: ref de Saint Germain et al., 2016; cited from earlier work
[8] = test system: rms3-4 pea mutant plants; experiment: Pea shoot-branching assay by direct application on the bud, rms3-4; format: in vivo, Pisum sativum; details: rms3-4, 10 days after treatment
Procedure: as §1, §2

[9] = test system: Ppccd8 mutant plants; details: WT and Ppccd8; ref Hoffmann et al., 2014; Lopez-Obando et al., 2021; cited from earlier work
[10] = test system: Ppccd8 mutant plants; experiment: Physcomitrium patens bioassay, number of filaments in the dark; format: in vivo; details: 1 μM
Procedure: Assays on Physcomitrium patens were performed on plants grown in 24-well plates, starting from very small pieces of moss tissues as described by Guillory and Bonhomme ([2021]). As for pea rms1, the Ppccd8 SL synthesis mutant was used for assays, since the effect of the compounds was better seen in this mutant vs. wild type (WT; Lopez-Obando et al., [2021]). For each treatment, 24 plants were grown in PpNO3 medium [minimal medium described by Ashton et al., [1979]], dispatched in three different plates. Plants were grown for 2 weeks under control conditions, then treated with fluorophores or probes (all compounds used at 1 μM), before being placed vertically in the dark for 10 days. A single picture of each well was taken under an Axio Zoom microscope (Zeiss) with a dedicated program. Filaments were counted using ImageJ software (http://imagej.nih.gov/ij/) as described by Guillory and Bonhomme ([2021]). Twenty-four plants were tested in each treatment.

[11] = test system: Arabidopsis SL-deficient mutant max3-11; experiment: Hydroponic assay on Arabidopsis, rosette branches; format: in vivo, Arabidopsis thaliana; details: max3-11, hydroponic, 0.5 and 3 μM
Procedure: The hydroponic assay was adapted from the study by Cornet et al. ([2021]). Seeds were surface-sterilized for 8 min in a solution of ethanol (95%) and hypochlorite solution (10%; Bayrol, Mundolsheim, France) and were rinsed two times with ethanol (100%). Each seed was sown on top of a cut 0.5 ml Eppendorf tube filled with agar medium containing 0.65% of agar and 10% of nutritive solution of 5 mM NO3. Tubes were soaked in water and stored in the dark at 4°C for 2 days. Twelve plants per pipette tip box (13 × 9 × 7 cm) were grown and supplied with nutrient solution as in the study by Boyer et al. ([2014]) at a concentration of 5 ml/L (750 ml of solution per box). Every week, the nutrient solution was renewed and every 10 days one time, a fresh batch of treatment was added to the solution. The first treatment occurred at day 27 after sowing when plants started to bolt. The number of rosette branches was counted at day 42.

[12] = test system: ShD14; parameters: method as in Xu et al., 2018; details: ref Xu et al., 2018; cited from earlier work
[13] = test system: rms1-10 pea mutant plants; experiment: Pea shoot-branching assay by vascular supply, rms1-10; format: in vivo, Pisum sativum; details: rms1-10, 3,000 nM
Procedure: as §1
The compounds to be tested were applied by vascular supply (Muñoz et al., [2021]). The control was the treatment with 0.1% of DMSO in water. A total of 12 plants were sown per treatment in trays and were treated with probes under node 3 bud generally 10 days after sowing. Compounds in DMSO solution were diluted with water to 3,000 nM for a treatment with 0.1% (v/v) DMSO. The branches at nodes 1 and 2 were removed to encourage the outgrowth of axillary buds at the nodes above. Nodes were numbered acropetally from the first scale leaf as node 1 and cotyledonary node as node 0. Bud growth at nodes 3 and 4 was measured with digital calipers 8–10 days after treatment. Plants with damaged main shoot apex or with a dead white treated-bud were discarded from the analysis. The SL-deficient rms1-10 pea mutant was used for all experiments.

[14] = Stability of CoumarinAc and DiFMUAc (DMSO, PBS); format: physicochemical; details: in PBS and in DMSO (20°C), in comparison to CoumarinAc
Procedure: Dimethyl sulfoxide (DMSO) solution of the compound to be tested (1 mM) was incubated at 20°C in the HPLC vials. (±)-1-Indanol [Alfa Aesar, purity >97.5% (GC); 10 mM] was used as the internal standard. The samples were subjected to reverse-phase-ultra-performance liquid chromatography (RP-UPLC)-MS analyses by means of UPLC system equipped with a photo diode array (PDA) and a triple quadrupole detector (TQD) mass spectrometer (Acquity UPLC-TQD, Waters). RP-UPLC (HSS C18 column, 1.8 μm, 2.1 × 50 mm) with 0.1% (v/v) of formic acid in CH3CN and 0.1% (v/v) of formic acid in water (aq. FA, 0.1%, v/v, pH 2.8) were used as eluents [10% CH3CN, followed by linear gradient from 10 to 100% of CH3CN (4 min)] at a flow rate of 0.6 ml min^−1. The detection was done by PDA and with the TQD mass spectrometer operated in electrospray ionization-positive mode at 3.2 kV capillary voltage. To maximize the signal, the cone voltage and collision energy were optimized to 20 V and 12 eV, respectively. The collision gas used was argon at a pressure maintained near 4.5 10^−3 mBar. The relative quantity of the remaining (non-degraded) product was determined by integration comparison with the internal standard.

SMILES: CC1=CC(Oc2c(F)cc3c(C)cc(=O)oc3c2F)OC1=O (racemic) [(±)-GC240]
- Bioactivity on shoot branching inhibition (bud development) ([1]; rms1-10, direct application): inhibition of bud development; also recorded: less efficient than (±)-GR24
- Affinity of the rice SL receptor suggested by cleavage profile [2]: lower affinity
- Cleavage of probe by OsD14 [2]: able to cleave
- Length of bud at node 3 /branch ([3]; 1,000 nM): 2.52 mm
- Length of bud at node 3 /branch ([3]; 5,000 nM): 2.61 mm
- Cleavage of probe by DAD2 [4]: able to cleave
- Cleavage kinetics by RMS3 [5]: Two-phase cleavage kinetics; also recorded: blocked at very low concentration
- Cleavage of probe by RMS3 [5]: able to cleave
- Cleavage of probe by AtD14 [6]: able to cleave

SMILES: CC1=C(C)C(Oc2c(F)cc3c(C)cc(=O)oc3c2F)OC1=O (racemic) [(±)-GC242]
- Length of bud at node 3 /branch ([1]; 10,000 nM): 1.77 mm
- Bioactivity on shoot branching inhibition (bud development) ([1]; rms1-10, direct application): among the most bioactive molecules
- Cleavage of probe by OsD14 [2]: able to cleave
- Bioactivity in Arabidopsis [7]: previously found bioactive
- Length of bud at node 3 /branch ([8]; 1,000 nM): 35.80
- Length of bud at node 3 /branch ([8]; 5,000 nM): 33.76
- Cleavage of probe by DAD2 [4]: able to cleave
- Effect on filament number [9]: dose-dependent decrease in the filament number
- Cleavage kinetics by RMS3 [5]: Two-phase cleavage kinetics; also recorded: blocked at very low concentration; also recorded: two-phase kinetic
- Cleavage of probe by RMS3 [5]: able to cleave
- Activity on filament number [10]: confirmed the previous activity
- Cleavage of probe by AtD14 [6]: able to cleave

SMILES: CCOC(=O)c1ccccc1-c1c2ccc(=O)cc-2oc2cc(OC3C=C(C)C(=O)O3)ccc12 (racemic) [(±)-YLG, reference compound]
- Length of bud at node 3 /branch ([1]; 10 nM): 24.15 mm
- Bioactivity on shoot branching inhibition (bud development) ([1]; rms1-10, direct application): inhibition of bud development; also recorded: less efficient than (±)-GR24
- Bioactivity on number of rosette branches [11]: not bioactive
- Cleavage of probe by OsD14 [2]: unable to cleave
- Cleavage by ShD14 [12]: not able to cleave
- Bioactivity by vascular supply compared to the coumarin derivatives series [13]: lower bioactivity
- Activity on filament number [10]: less active
- Activity on filament number, one bioassay replication ([10]; Supplementary Figure 3): no significant bioactivity

SMILES: CC(=O)Oc1c(F)cc2c(C)cc(=O)oc2c1F [DiFMUAc]
- Length of bud at node 3 /branch ([1]; 10 nM): 23.71 mm
- Length of bud at node 3 /branch ([1]; 100 nM): 19.75 mm
- Length of bud at node 3 /branch ([1]; 1,000 nM): 22.17 mm
- Effect on axillary bud ([1]; rms1-10, direct application, 100 nM): significant effect
- Bioactivity on shoot branching inhibition (bud development) ([1]; rms1-10, direct application): no effect
- Stability [14]: poorly stable
